Source: patent publication US7393812B2, “Methylidene mevalonates and their use as herbicides” (Dow AgroSciences LLC, priority 2004, dated 2008)

Assays:
Format in all cases: in vivo
[1] = test system: morningglory (Ipomoea hederacea, IPOHE); assay: Synergistic herbicidal activity, foliar track sprayer; conditions: methylidene mevalonate 933 g ae/ha alone, 14 days, 1% crop oil concentrate
Description: (§1) Methylidene mevalonate alone and in combination with nonanoic acid was applied to the foliage of rapidly growing plant material utilizing a track sprayer calibrated to deliver an application volume of 187 L/ha. These treatments were applied to both broadleaf and grass weed species. All treatments contained 1% crop oil concentrate. Assessment of herbicidal activity was performed visually relative to untreated controls after 14 days incubation in the greenhouse. Species abbreviations are as previously defined.

[2] = test system: crabgrass (Digitaria sanguinalis, DIGSA); assay: as above; conditions: methylidene mevalonate 933 g ae/ha alone, 14 days, 1% crop oil concentrate
Description: as §1

[3] = test system: lambsquarters (Chenopodium album, CHEAL); assay: as above; conditions: methylidene mevalonate 933 g ae/ha alone, 14 days, 1% crop oil concentrate
Description: as §1

[4] = test system: wild oats (Avena fatua, AVEFA); assay: as above; conditions: methylidene mevalonate 933 g ae/ha alone, 14 days, 1% crop oil concentrate
Description: as §1

[5] = test system: blackgrass (Alopecurus myosuroides, ALOMY); assay: General herbicidal evaluation, preemergence; conditions: 16 days after treatment
From the text: (§2) Applications of methylidene mevalonate were made either to the foliage (postemergence) or soil (preemergence). Seeds of sunflower (Helianthus annus, HELAN), morningglory (Ipomoea hederacea, IPOHE) velvetleaf (Abutilon theophrasti, ABUTH), pigweed (Amaranthus spp., AMARE), barnyardgrass (Echinochloa crusgalli, ECHCG), giant foxtail (Setaria faberi, SETFA), wild oats (Avena fatua, AVEFA), and blackgrass (Alopecurus myosuroides, ALOMY) were planted in mineral soil (sandy clay loam, 51% sand, 26% silt, 23% clay, 2.8% O.M., pH 7.8) and Metro-mix (Bulk Sak, Inc., Malvern, Ark., USA) for preemergence and postemergence treatments, respectively. Pots receiving preemergence treatments were watered immediately following application. Prior to postemergence treatment, plants were grown in the greenhouse (16 h photoperiod, 27 C) and thinned to a density of 2 to 15 plants pot^−1, depending on species. At the time of postemergence applications, plants were 8-12 days old, 3 to 10 cm in height, and in the 1- to 3-true-leaf stage. Natural light in the greenhouse was supplemented with metal halide lights that provided an average photosynthetic photon flux of 500 μmol m^−2s^−1.
(§3) A sample of sodium methylidene mevalonate was dissolved in 4 mL of distilled water followed by 10 mL of formulation stock “B” (200 mL isopropanol, 20 mL crop oil concentrate, 0.4 g Triton X-155 [Sigma Chemical Co., St. Louis, Mo. 62718], and 78 mL water). This was followed by three 1:1 (v/v) serial dilutions using formulation stock “C” (100 mL isopropanol, 10 mL crop oil concentrate, 0.2 g Triton X-155, 390 mL water, 485 mL acetone and 15 mL DMSO).
(§4) Treatments were made at four different doses (4000, 2000, 1000, and 500 g ha^−1). For preemergence treatments, 1.75 mL of spray solution were applied to the soil surface in each pot using a glass Cornwall syringe fitted with a Teejet SS8001E flat-fan nozzle (Spraying Systems Co., Wheaton, Ill. 60189-7900). For postemergence applications, the foliage of the test plants was sprayed using a DeVilbiss atomizer (DeVilbiss Health Car, Inc., Somerset, Pa. 15501) driven by compressed air at a pressure of 22 kPa. Untreated controls were included.
(§5) Pots were placed in the greenhouse following compound application. Pots from postemergence and preemergence were sub-irrigated and top-watered, respectively, as needed for the duration of the test. Visual injury ratings were taken 9 and 16 days after treatment for postemergence and preemergence applications, respectively, on a 0 to 100 scale where 0 represents no injury and 100 represents complete necrosis.

[6] = test system: barnyardgrass (Echinochloa crusgalli, ECHCG); assay: General herbicidal evaluation, preemergence; conditions: 16 days after treatment
From the text: as §2, §3, §4, §5

[7] = test system: morningglory (Ipomoea hederacea, IPOHE); assay: General herbicidal evaluation, preemergence; conditions: 16 days after treatment
From the text: as §2, §3, §4, §5

[8] = test system: velvetleaf (Abutilon theophrasti, ABUTH); assay: General herbicidal evaluation, preemergence; conditions: 16 days after treatment
From the text: as §2, §3, §4, §5

[9] = test system: giant foxtail (Setaria faberi, SETFA); assay: General herbicidal evaluation, preemergence; conditions: 16 days after treatment
From the text: as §2, §3, §4, §5

[10] = test system: pigweed (Amaranthus spp., AMARE); assay: General herbicidal evaluation, preemergence; conditions: 16 days after treatment
From the text: as §2, §3, §4, §5

[11] = test system: wild oats (Avena fatua, AVEFA); assay: General herbicidal evaluation, preemergence; conditions: 16 days after treatment
From the text: as §2, §3, §4, §5

C=C(CO)C(C)(O)CC(=O)O (centres unmarked) [methylidene mevalonate, 3-hydroxy-4-(hydroxymethyl)-3-methylpent-4-enoic acid]
Actual Injury % growth reduction [1]: 60%
Actual Injury % growth reduction [2]: 35%
Actual Injury % growth reduction [3]: 0%
Actual Injury % growth reduction [4]: 35%
Visual Injury (%) ([5]; 0.5 kg ha^−1, ALOMY): 0%
Visual Injury (%) ([5]; 1.0 kg ha^−1, ALOMY): 0%
Visual Injury (%) ([5]; 2.0 kg ha^−1, ALOMY): 20%
Visual Injury (%) ([5]; 4.0 kg ha^−1, ALOMY): 30%
Visual Injury (%) ([6]; 0.5 kg ha^−1, ECHCG): 0%
Visual Injury (%) ([6]; 1.0 kg ha^−1, ECHCG): 0%
Visual Injury (%) ([6]; 2.0 kg ha^−1, ECHCG): 20%
Visual Injury (%) ([6]; 4.0 kg ha^−1, ECHCG): 30%
Visual Injury (%) ([7]; 0.5 kg ha^−1, IPOHE): 0%
Visual Injury (%) ([7]; 1.0 kg ha^−1, IPOHE): 0%
Visual Injury (%) ([7]; 2.0 kg ha^−1, IPOHE): 0%
Visual Injury (%) ([7]; 4.0 kg ha^−1, IPOHE): 20%
Visual Injury (%) ([8]; 0.5 kg ha^−1, ABUTH): 0%
Visual Injury (%) ([8]; 1.0 kg ha^−1, ABUTH): 0%
Visual Injury (%) ([8]; 2.0 kg ha^−1, ABUTH): 20%
Visual Injury (%) ([8]; 4.0 kg ha^−1, ABUTH): 30%
Visual Injury (%) ([9]; 0.5 kg ha^−1, SETFA): 0%
Visual Injury (%) ([9]; 1.0 kg ha^−1, SETFA): 0%
Visual Injury (%) ([9]; 2.0 kg ha^−1, SETFA): 20%
Visual Injury (%) ([9]; 4.0 kg ha^−1, SETFA): 30%
Visual Injury (%) ([10]; 0.5 kg ha^−1, AMARE): 0%
Visual Injury (%) ([10]; 1.0 kg ha^−1, AMARE): 0%
Visual Injury (%) ([10]; 2.0 kg ha^−1, AMARE): 30%
Visual Injury (%) ([10]; 4.0 kg ha^−1, AMARE): 40%
Visual Injury (%) ([11]; 0.5 kg ha^−1, AVEFA): 0%
Visual Injury (%) ([11]; 1.0 kg ha^−1, AVEFA): 0%
Visual Injury (%) ([11]; 2.0 kg ha^−1, AVEFA): 0%
Visual Injury (%) ([11]; 4.0 kg ha^−1, AVEFA): 10%
